ChEMBL document CHEMBL3044931, “Synthesis and Antimuscarinic Activity of Derivatives of 2-Substituted-1,3-Dioxolanes” (Med Chem Res, 2005)

Legend:
[1] = biological target: Muscarinic acetylcholine receptor M3 (Cavia porcellus) (UniProt Q8VH26); experiment: Binding affinity to Cavia porcellus (guinea pig) ileum M3 receptor after 30 min; format: tissue-based
[2] = Selectivity ratio of pKb for rabbit vas deferens M1 receptor to pKb for guinea pig left atria M2 receptor
Cavia porcellus = species on record: Cavia porcellus; experiment: Selectivity ratio of pKb for Cavia porcellus (guinea pig) ileum M3 receptor to pKb for Cavia porcellus (guinea pig) left atria M2 receptor; format: tissue-based; conditions: Atrium/Ileum
[3] = biological target: T1, Muscarinic receptor 2 (Cavia porcellus) (UniProt Q8VH27); experiment: Binding affinity to Cavia porcellus (guinea pig) left atria M2 receptor after 2 hr
T1 sequence (whole entry): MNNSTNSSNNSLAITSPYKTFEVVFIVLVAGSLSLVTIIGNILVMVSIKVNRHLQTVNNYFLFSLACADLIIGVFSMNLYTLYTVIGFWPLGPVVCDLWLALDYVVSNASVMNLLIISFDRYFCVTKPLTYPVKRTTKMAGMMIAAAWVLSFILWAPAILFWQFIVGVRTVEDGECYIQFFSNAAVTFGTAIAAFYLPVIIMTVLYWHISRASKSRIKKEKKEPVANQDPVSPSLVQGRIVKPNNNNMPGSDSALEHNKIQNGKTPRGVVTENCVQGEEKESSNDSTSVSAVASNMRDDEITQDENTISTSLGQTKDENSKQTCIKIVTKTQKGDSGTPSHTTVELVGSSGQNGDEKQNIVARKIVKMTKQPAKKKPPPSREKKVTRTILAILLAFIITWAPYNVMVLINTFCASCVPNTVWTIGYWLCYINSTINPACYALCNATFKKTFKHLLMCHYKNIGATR

Oryctolagus cuniculus = species on record: Oryctolagus cuniculus; experiment: Binding affinity to Oryctolagus cuniculus (rabbit) vas deferens M1 receptor after 1 hr
[4] = Selectivity ratio of pKb for rabbit vas deferens M1 receptor to pKb for guinea pig ileum M3 receptor; format: tissue-based
[5] = Antagonist activity at Oryctolagus cuniculus (rabbit) vas deferens M1 receptor after 1 hr; conditions: read-out: pA2 (converted)

Chain of Muscarinic acetylcholine receptor M3 (Cavia porcellus) (Q8VH26 1-587): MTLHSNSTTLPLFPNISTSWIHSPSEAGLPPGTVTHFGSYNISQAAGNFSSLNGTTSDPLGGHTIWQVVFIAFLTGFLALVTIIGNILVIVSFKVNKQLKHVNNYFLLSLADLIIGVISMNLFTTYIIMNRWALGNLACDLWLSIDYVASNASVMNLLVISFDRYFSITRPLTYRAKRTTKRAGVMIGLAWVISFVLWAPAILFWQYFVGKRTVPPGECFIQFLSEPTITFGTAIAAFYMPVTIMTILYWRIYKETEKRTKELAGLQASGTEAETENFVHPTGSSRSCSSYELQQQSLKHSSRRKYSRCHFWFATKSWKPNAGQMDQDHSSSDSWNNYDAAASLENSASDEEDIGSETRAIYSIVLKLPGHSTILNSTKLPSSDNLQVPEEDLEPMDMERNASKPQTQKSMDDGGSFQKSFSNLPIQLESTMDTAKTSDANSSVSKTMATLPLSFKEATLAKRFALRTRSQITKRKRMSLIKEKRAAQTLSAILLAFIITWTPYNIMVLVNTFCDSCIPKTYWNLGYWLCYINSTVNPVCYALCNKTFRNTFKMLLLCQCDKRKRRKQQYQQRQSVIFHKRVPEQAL

| Compound | pKb [1] | Ratio pKb [2] | pKb [3] | pKb (Oryctolagus cuniculus) | Ratio pKb (Cavia porcellus) | Ratio pKb [4] | Kb [5] [nM] |
| --- | --- | --- | --- | --- | --- | --- | --- |
| CN(C)[C@H]1CO[C@@H](C(c2ccccc2)c2ccccc2)OC1 | – | – | – | – | – | – | 6.17 |
| CN(C)C[C@@H]1CO[C@H](C(c2ccccc2)c2ccccc2)O1 (relative stereo) | 6.07 | 5 | 6.62 | 7.31 | 0.3 | 17 | – |
| CN(C)[C@H]1CO[C@H](C(c2ccccc2)c2ccccc2)OC1 | – | – | – | – | – | – | 389 |
| CN(C)C[C@@H]1CO[C@@H](C(c2ccccc2)c2ccccc2)O1 | 6.67 | 2 | 6.56 | 6.9 | 1 | 2 | – |

Second part, led by results:

| pKb [1] | Ratio pKb [2] | pKb [3] | pKb (Oryctolagus cuniculus) | Compound | Ratio pKb (Cavia porcellus) | Ratio pKb [4] | Kb [5] [nM] |
| --- | --- | --- | --- | --- | --- | --- | --- |
| 6.72 | 1 | 7.11 | 7.15 | CN(C)CC1COC(c2ccccc2)(c2ccccc2)O1 (configuration not stated) | 0.4 | 3 | – |
| 6.71 | 1 | 6.71 | 6.87 | C[C@H]1OC(c2ccccc2)(c2ccccc2)O[C@@H]1CN(C)C (relative stereo) | 1 | 1 | – |
| 6.44 | 0.7 | 6.48 | 6.35 | C[C@@H]1OC(c2ccccc2)(c2ccccc2)O[C@@H]1CN(C)C (relative stereo) | 0.9 | 0.8 | – |
